Measurements as given in ChEMBL document CHEMBL1201862, “PubChem BioAssay data set” (2004).
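Five compound concentrations were applied to cells in 96-well plates for 48 hours; endpoints were derived by simple linear interpolation of the resulting dose-response curve. Here, GI50 denotes the concentration required for 50% inhibition of growth.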 Activity calls are given as the source filed them. No stated cut-off is given here; in the data, active = GI50 up to about 1.1 µM and inactive = higher. *1 amine or outer side, *2 acyl side, *3 side chain or, on linkers, in order; H or OH if unused. Where a SMILES comes first, the peptide text is derived from it. Non-standard residues stand in square brackets, D forms with d. Residues, ends and D or L forms follow the SMILES beside them. Bridges are numbered along the chain shown (N, C = ends). [ ]: non-standard residue; d: D form. ξ: configuration not given here. X10 = CCC(C)C(N[*:1])C(O)CC(=O)O[C@H](C(=O)C(C)C(=O)[*:2])C(C)C; NMeY = CN[C@@H](Cc1ccc(O)cc1)C(=O)O; β3hI = CC[CH](C)[CH](N)CC(=O)O; ξNMeL = CNC(CC(C)C)C(=O)O; ξT = CC(O)C(N)C(=O)O

Legend:
Test in all cases: NCI tumour cell line growth inhibition, 48 h
786-0 = tested on: 786-0
A549 = tested on: A549
COLO 205 = tested on: COLO 205
HL-60 = tested on: HL-60
HOP-92 = tested on: HOP-92
K562 = tested on: K562
M14 = tested on: M14
MDA-MB-231 = tested on: MDA-MB-231
MDA-MB-435 = tested on: MDA-MB-435
MDA-N = tested on: MDA-N
MOLT-4 = tested on: MOLT-4
Malme-3M = tested on: Malme-3M
NCI-H226 = tested on: NCI-H226
NCI/ADR-RES = tested on: NCI/ADR-RES
OVCAR-4 = tested on: OVCAR-4
PC-3 = tested on: PC-3
RPMI-8226 = tested on: RPMI-8226
SK-OV-3 = tested on: SK-OV-3
UACC-257 = tested on: UACC-257
UO-31 = tested on: UO-31

COc1cccc(C(=O)N[C@@H]2[C@H](O)[C@@H](CO)O[C@H]2n2cnc3c(N)ncnc32)c1
GI50 (786-0): > 100 µM (inactive) | GI50 (A549): > 100 µM (inactive) | GI50 (COLO 205): > 100 µM (inactive) | GI50 (HL-60): > 100 µM (inactive) | GI50 (HOP-92): > 100 µM (inactive) | GI50 (K562): > 100 µM (inactive) | GI50 (M14): > 100 µM (inactive) | GI50 (MDA-MB-231): > 100 µM (inactive) | GI50 (MDA-MB-435): > 100 µM (inactive) | GI50 (MDA-N): > 100 µM (inactive) | GI50 (MOLT-4): > 100 µM (inactive) | GI50 (Malme-3M): > 100 µM (inactive) | GI50 (NCI-H226): > 100 µM (inactive) | GI50 (NCI/ADR-RES): > 100 µM (inactive) | GI50 (OVCAR-4): > 100 µM (inactive) | GI50 (PC-3): > 100 µM (inactive) | GI50 (RPMI-8226): > 100 µM (inactive) | GI50 (SK-OV-3): > 100 µM (inactive) | GI50 (UACC-257): > 100 µM (inactive) | GI50 (UO-31): > 100 µM (inactive)

CCC(C)C1NC(=O)C(NC(=O)C(CC(C)C)N(C)C(=O)[C@@H]2CCCN2)C(C)OC(=O)[C@H](Cc2ccc(OC)cc2)N(C)C(=O)[C@@H]2CCCN2C(=O)[C@H](CC(C)C)NC(=O)C(C)C(=O)[C@H](C(C)C)OC(=O)CC1O (stereo partly drawn) (H-P[ξNMeL][ξT][X10]LP[NMeY](Me); ester 3-C)
GI50 (786-0): 0.000564 µM (active) | GI50 (A549): 0.000533 µM (active) | GI50 (COLO 205): 0.000153 µM (active) | GI50 (HL-60): 0.00389 µM (active) | GI50 (HOP-92): 0.00121 µM (active) | GI50 (K562): 0.000325 µM (active) | GI50 (M14): 0.000222 µM (active) | GI50 (MDA-MB-231): 0.00042 µM (active) | GI50 (MDA-MB-435): 0.00047 µM (active) | GI50 (MDA-N): 0.000346 µM (active) | GI50 (MOLT-4): 0.000244 µM (active) | GI50 (Malme-3M): 0.000317 µM (active) | GI50 (NCI-H226): < 0.01 µM (active) | GI50 (NCI/ADR-RES): 0.0521 µM (active) | GI50 (OVCAR-4): 0.000139 µM (active) | GI50 (PC-3): 0.00106 µM (active) | GI50 (RPMI-8226): 0.00116 µM (active) | GI50 (SK-OV-3): 0.000386 µM (active) | GI50 (UACC-257): 0.000815 µM (active) | GI50 (UO-31): 0.0214 µM (active)

Cc1ccsc1C(=S)Nc1ccc(Cl)c(/C=N/OC(C)C)c1
GI50 (786-0): 42.5 µM (inactive) | GI50 (A549): 46.6 µM (inactive) | GI50 (COLO 205): 18.7 µM (inactive) | GI50 (HL-60): 10.3 µM (inactive) | GI50 (HOP-92): > 100 µM (inactive) | GI50 (M14): 37.7 µM (inactive) | GI50 (MDA-MB-231): 41.2 µM (inactive) | GI50 (MDA-MB-435): 49.3 µM (inactive) | GI50 (MDA-N): 37.8 µM (inactive) | GI50 (MOLT-4): 11.2 µM (inactive) | GI50 (Malme-3M): 35.1 µM (inactive) | GI50 (NCI-H226): 31.3 µM (inactive) | GI50 (NCI/ADR-RES): 30 µM (inactive) | GI50 (OVCAR-4): 14.8 µM (inactive) | GI50 (PC-3): 80.7 µM (inactive) | GI50 (RPMI-8226): 14.7 µM (inactive) | GI50 (SK-OV-3): 55.5 µM (inactive) | GI50 (UACC-257): 47.9 µM (inactive) | GI50 (UO-31): 21.1 µM (inactive)

CSC1=C(C)C(/C=N/Nc2ccc([N+](=O)[O-])cc2)=C(C)N(c2ccccc2)S1(=O)=O
GI50 (786-0): > 100 µM (inactive) | GI50 (A549): 36.3 µM (inactive) | GI50 (COLO 205): 48.2 µM (inactive) | GI50 (HL-60): 1.28 µM (inactive) | GI50 (HOP-92): > 100 µM (inactive) | GI50 (K562): 7.71 µM (inactive) | GI50 (M14): 38.6 µM (inactive) | GI50 (MDA-MB-231): > 100 µM (inactive) | GI50 (MDA-MB-435): > 100 µM (inactive) | GI50 (MDA-N): > 100 µM (inactive) | GI50 (MOLT-4): 5.27 µM (inactive) | GI50 (Malme-3M): 94.2 µM (inactive) | GI50 (NCI-H226): > 100 µM (inactive) | GI50 (NCI/ADR-RES): 6.49 µM (inactive) | GI50 (OVCAR-4): > 100 µM (inactive) | GI50 (PC-3): 25.9 µM (inactive) | GI50 (RPMI-8226): 5.07 µM (inactive) | GI50 (SK-OV-3): > 100 µM (inactive) | GI50 (UACC-257): > 100 µM (inactive) | GI50 (UO-31): 29.3 µM (inactive)

CCC(C)C(CC(=O)N1CCCC1C(=O)NC(C(=O)NC(C(=O)NCC(=O)NC(CC(N)=O)C(=O)NC(C(=O)NC(C(=O)NC(CCCCN)C(N)=O)C(C)CC)C(C)CC)C(C)C)C(C)CC)NC(=O)C(N)C(C)CC (stereo not drawn) (H-I[β3hI]PIVGNIIK-NH2; configuration not given here)
GI50 (786-0): > 50 µM (inactive) | GI50 (A549): > 50 µM (inactive) | GI50 (COLO 205): > 50 µM (inactive) | GI50 (HL-60): > 50 µM (inactive) | GI50 (HOP-92): > 50 µM (inactive) | GI50 (M14): > 50 µM (inactive) | GI50 (MDA-MB-231): > 50 µM (inactive) | GI50 (MDA-MB-435): > 50 µM (inactive) | GI50 (MDA-N): > 50 µM (inactive) | GI50 (MOLT-4): > 50 µM (inactive) | GI50 (Malme-3M): > 50 µM (inactive) | GI50 (NCI-H226): > 50 µM (inactive) | GI50 (NCI/ADR-RES): > 50 µM (inactive) | GI50 (OVCAR-4): > 50 µM (inactive) | GI50 (PC-3): > 50 µM (inactive) | GI50 (RPMI-8226): > 50 µM (inactive) | GI50 (SK-OV-3): > 50 µM (inactive) | GI50 (UACC-257): > 50 µM (inactive) | GI50 (UO-31): > 50 µM (inactive)

O=CN/C=C/c1cccc(O)c1
GI50 (786-0): 54 µM (inactive) | GI50 (A549): 54.5 µM (inactive) | GI50 (COLO 205): > 77.3 µM (inactive) | GI50 (HL-60): 38.5 µM (inactive) | GI50 (HOP-92): 55.2 µM (inactive) | GI50 (K562): > 75.7 µM (inactive) | GI50 (M14): 61.9 µM (inactive) | GI50 (MDA-MB-231): 49.8 µM (inactive) | GI50 (MDA-MB-435): 38.2 µM (inactive) | GI50 (MDA-N): 46 µM (inactive) | GI50 (MOLT-4): 59.8 µM (inactive) | GI50 (Malme-3M): > 82.8 µM (inactive) | GI50 (NCI-H226): 56.5 µM (inactive) | GI50 (NCI/ADR-RES): 52.2 µM (inactive) | GI50 (OVCAR-4): 61.4 µM (inactive) | GI50 (PC-3): 56.6 µM (inactive) | GI50 (RPMI-8226): > 71.9 µM (inactive) | GI50 (SK-OV-3): > 72.1 µM (inactive) | GI50 (UACC-257): 63.7 µM (inactive) | GI50 (UO-31): 54.2 µM (inactive)
